Holding throughout (assay): ≥ marks a high value that may be exact or a test limit, other limits are often not marked, values filed in µg/mL are converted to µM
For assay [1], the system named is Staphylococcus aureus ATCC 15752.
The subject of assay [2] is Streptococcus mutans ATCC 25175.
In assay [3] the test system is Saccharomyces cerevisiae ATCC 44774.
Assay [4] deals with Candida albicans ATCC 10231.
For assay [5], the system named is Bacillus subtilis ATCC 62037.
Assay [6] deals with Salmonella enterica subsp. enterica serovar Enteritidis ATCC 13076.
Assay [7] has as its system Cryptococcus neoformans ATCC 34881.
The subject of assay [8] is Escherichia coli ATCC 27325.
The test system of assay [9] is Pseudomonas putida ATCC 17426.
Assay [10] relates to Pseudomonas aeruginosa PAO1 H103.
Assay [11] has as its system Staphylococcus aureus ATCC 25923.
Assay [12] deals with Pseudomonas aeruginosa H1027.
In assay [13] the test system is Enterococcus faecium mic80.
The subject of assay [14] is Enterococcus faecalis f43559.
For assay [15], the system named is Klebsiella pneumoniae ESBL 61962.
Assay [16] concerns Staphylococcus aureus C623.
The subject of assay [17] is Pseudomonas aeruginosa 198.
For a further assay, the system named is Pseudomonas aeruginosa 9.
Assay [18] concerns Enterobacter cloacae 218R.
In assay [19] the test system is Escherichia coli ESBL 64771.
Assay [20] deals with Stenotrophomonas maltophilia ATCC 13637.
In assay [21] the test system is Enterococcus faecalis W61950.
Assay [22] relates to Escherichia coli ESBL 63103.
Assay [23] deals with Enterococcus faecalis ATCC 29212.
Assay [24] relates to Pseudomonas aeruginosa H1030.
Assay [25] deals with Enterococcus faecium t62764.
The subject of assay [26] is Klebsiella pneumoniae ESBL 63575.
The test system of assay [27] is Pseudomonas aeruginosa LES400.
In assay [28] the test system is Pseudomonas aeruginosa 213.
Assay [29] deals with Pseudomonas aeruginosa ATCC 27853.
The test system of assay [30] is Bacillus subtilis ATCC 6633.
For assay [31], the system named is Staphylococcus aureus TK784.
Assay [32] concerns Staphylococcus aureus ATCC 6538P.
In assay [33] the test system is Escherichia coli ATCC 25922.
The subject of assay [34] is Staphylococcus epidermidis ATCC 12228.
The test system of assay [35] is Klebsiella pneumoniae ATCC 10031.
The subject of assay [36] is Micrococcus luteus ATCC 10240.
Assay [37] relates to Salmonella enterica subsp. enterica serovar Typhimurium ATCC 14028.
For assay [38], the system named is Shigella dysenteriae ATCC 9752.

Structures are written as SMILES. Converted amounts (≈) assume the structure as drawn.

A word on the MIC: it is the lowest concentration found to suppress growth. Low readings indicate greater potency, high ones weaker potency.

For the compound `CC[C@H](C)[C@H](NC(=O)CNC(=O)[C@H](CCCCN)NC(=O)[C@H](CCCCN)NC(=O)[C@H](CCC(N)=O)NC(=O)[C@H](CC(C)C)NC(=O)[C@H](CCSC)NC(=O)[C@@H](NC(=O)[C@H](CCC(=O)O)NC(=O)CNC(=O)[C@@H](NC(=O)[C@H](Cc1ccccc1)NC(=O)[C@H](C)NC(=O)[C@H](CCCCN)NC(=O)CNC(=O)[C@H](Cc1ccccc1)NC(=O)[C@H](CCCCN)NC(=O)[C@H](CCCCN)NC(=O)[C@H](C)NC(=O)[C@H](CO)NC(=O)[C@H](Cc1cnc[nH]1)NC(=O)[C@H](CCSC)NC(=O)[C@H](C)NC(=O)[C@H](CCCCN)NC(=O)[C@@H]1CCCN1C(=O)[C@H](C)N)C(C)C)[C@@H](C)CC)C(=O)O` [APKAMHSAKKFGKAFVGEIMLQKKGI], the MIC in assay [1] is 22.7 µM (≈ 64 µg/mL); in [2], not below 45.4 µM; in [3] it was 11.4 µM (≈ 32 µg/mL); in [4], 11.4 µM (≈ 32 µg/mL); in [5], 22.7 µM (≈ 64 µg/mL); in assay [6] it was 11.4 µM (≈ 32 µg/mL). The results for the MIC in [7], in [8] and in assay [9] were 5.68 µM (≈ 16 µg/mL), 22.7 µM (≈ 64 µg/mL) and 22.7 µM (≈ 64 µg/mL), respectively.
On to `N=C(N)NCCC[C@H](NC(=O)[C@H](CCCNC(=N)N)NC(=O)[C@@H](N)Cc1ccccc1)C(=O)N[C@@H](Cc1c[nH]c2ccccc12)C(=O)N[C@@H](Cc1c[nH]c2ccccc12)C(=O)N[C@@H](CCCCN)C(=O)N[C@@H](Cc1c[nH]c2ccccc12)C(=O)N[C@@H](Cc1ccccc1)C(=O)N[C@@H](CCCCN)C(=O)O` [FRRWWKWFK], for which the minimal inhibitory concentration (MIC) in [10] was 0.695 µM (≈ 1 µg/mL); in assay [11] it was 0.695 µM (≈ 1 µg/mL); in [12] it was 0.695 µM (≈ 1 µg/mL); in [13], 2.92 µM (≈ 4.2 µg/mL); in assay [14], not below 46.5 µM; in [15] it was not below 46.5 µM. The MIC in assay [16] came to 1.46 µM (≈ 2.1 µg/mL); in assay [17], 1.46 µM (≈ 2.1 µg/mL); with Pseudomonas aeruginosa 9 it was 5.77 µM (≈ 8.3 µg/mL); in assay [18], 11.8 µM (≈ 17 µg/mL); in assay [19] it was 2.92 µM (≈ 4.2 µg/mL); in assay [20], 0.417 µM (≈ 0.6 µg/mL). Further, the minimum inhibitory concentration (MIC) is not below 93.8 µM in [21]; 5.77 µM (≈ 8.3 µg/mL) in assay [22]; 11.8 µM (≈ 17 µg/mL) in [23]; 11.8 µM (≈ 17 µg/mL) in [24]; 2.92 µM (≈ 4.2 µg/mL) in assay [25]; 11.8 µM (≈ 17 µg/mL) in assay [26]. For the same compound, the MIC in assay [27] and in assay [28] was 2.85 µM (≈ 4.1 µg/mL) throughout.
`CC(C)C[C@H](NC(=O)[C@H](CC(C)C)NC(=O)[C@H](CCCCN)NC(=O)[C@H](CCCCN)NC(=O)[C@H](CC(C)C)NC(=O)[C@H](Cc1c[nH]c2ccccc12)NC(=O)[C@H](CCCCN)NC(=O)[C@H](CC(C)C)NC(=O)[C@H](CC(C)C)NC(=O)[C@H](CCCCN)NC(=O)[C@@H](N)CCCCN)C(N)=O` [KKLLKWLKKLL]: the minimum inhibitory concentration (MIC) stood at 17.7 µM (≈ 25 µg/mL) in assay [29]; 4.47 µM (≈ 6.3 µg/mL) in assay [30]; 2.84 µM (≈ 4 µg/mL) in assay [31]; 4.47 µM (≈ 6.3 µg/mL) in assay [32]; 8.86 µM (≈ 12.5 µg/mL) in [33]; 4.47 µM (≈ 6.3 µg/mL) in assay [34]. The MIC was 4.47 µM (≈ 6.3 µg/mL) in assay [35], 4.47 µM (≈ 6.3 µg/mL) in assay [36], 17.7 µM (≈ 25 µg/mL) in [37] and 4.47 µM (≈ 6.3 µg/mL) in assay [38].
Consider `CC(C)C[C@H](NC(=O)[C@H](Cc1c[nH]c2ccccc12)NC(=O)[C@H](CCCCN)NC(=O)[C@H](CC(C)C)NC(=O)[C@H](CC(C)C)NC(=O)[C@H](CCCCN)NC(=O)[C@H](CCCCN)NC(=O)[C@H](CC(C)C)NC(=O)[C@H](CC(C)C)NC(=O)[C@@H](N)CCCCN)C(=O)N[C@@H](CCCCN)C(N)=O` [KLLKKLLKWLK], for which the minimum inhibitory concentration (MIC) in assay [29] is 2.84 µM (≈ 4 µg/mL); in assay [30], 1.42 µM (≈ 2 µg/mL); in [31], 5.67 µM (≈ 7.99 µg/mL); in assay [32] it was 1.42 µM (≈ 2 µg/mL); in [33] it was 1.42 µM (≈ 2 µg/mL); in assay [34], 1.42 µM (≈ 2 µg/mL). Also, the MIC in assay [35] is 1.42 µM (≈ 2 µg/mL); in assay [36] it was 2.84 µM (≈ 4 µg/mL); in assay [37], 1.42 µM (≈ 2 µg/mL); in [38], 1.42 µM (≈ 2 µg/mL).
Take `CC[C@H](C)[C@H](NC(=O)[C@H](CCCN=C(N)N)NC(=O)[C@H](CCCCN)NC(=O)[C@@H](NC(=O)[C@H](Cc1c[nH]c2ccccc12)NC(=O)[C@H](Cc1c[nH]c2ccccc12)NC(=O)[C@H](Cc1c[nH]c2ccccc12)NC(=O)[C@H](CCCN=C(N)N)NC(=O)[C@@H](N)CC(C)C)[C@@H](C)CC)C(=O)O` [LRWWWIKRI]: the MIC is 7.08 µM (≈ 9.6 µg/mL) in assay [10]; 3.39 µM (≈ 4.6 µg/mL) in [11]; 3.39 µM (≈ 4.6 µg/mL) in assay [12]; 3.39 µM (≈ 4.6 µg/mL) in assay [13]; 13.3 µM (≈ 18 µg/mL) in assay [14]; not below 109 µM in assay [15]. Moreover, the MIC in [16] worked out at 3.39 µM (≈ 4.6 µg/mL); in assay [17], 13.3 µM (≈ 18 µg/mL); against Pseudomonas aeruginosa 9, 27.3 µM (≈ 37 µg/mL); in assay [18], 27.3 µM (≈ 37 µg/mL); in assay [19], 7.08 µM (≈ 9.6 µg/mL); in assay [20], 1.77 µM (≈ 2.4 µg/mL). Besides, the MIC in assay [21] was 27.3 µM (≈ 37 µg/mL); in assay [22], 13.3 µM (≈ 18 µg/mL); in assay [23], 7.08 µM (≈ 9.6 µg/mL); in assay [24] it was 13.3 µM (≈ 18 µg/mL); in assay [25], 0.811 µM (≈ 1.1 µg/mL); in [26], 27.3 µM (≈ 37 µg/mL). Besides, the figures for the minimum inhibitory concentration (MIC) in assay [27] and in [28] were 13.3 µM (≈ 18 µg/mL) and 27.3 µM (≈ 37 µg/mL), respectively.
On to `CC[C@H](C)[C@H](NC(=O)[C@@H]1CCCN1C(=O)[C@H](Cc1c[nH]c2ccccc12)NC(=O)[C@H](CCC(N)=O)NC(=O)[C@H](CC(C)C)NC(=O)CNC(=O)[C@H](C)NC(=O)[C@@H](N)CCCN=C(N)N)C(=O)NCC(=O)N[C@@H](CCCN=C(N)N)C(=O)N[C@@H](CC(C)C)C(=O)N[C@@H](CC(C)C)C(=O)N[C@@H](CCCN=C(N)N)C(=O)N[C@@H](CCCN=C(N)N)C(=O)N[C@@H](CC(C)C)C(=O)N[C@@H](CC(C)C)C(=O)N[C@@H](CCCN=C(N)N)C(=O)N[C@@H](CCCN=C(N)N)C(=O)N[C@@H](CC(C)C)C(=O)N[C@@H](CC(C)C)C(=O)N[C@@H](CCCN=C(N)N)C(=O)O` [RAGLQWPIGRLLRRLLRRLLR], for which the MIC in assay [1] is 0.383 µM (≈ 1 µg/mL); in [2] it was 0.765 µM (≈ 2 µg/mL); in assay [3], 0.765 µM (≈ 2 µg/mL); in assay [4], 0.765 µM (≈ 2 µg/mL); in assay [5], 0.765 µM (≈ 2 µg/mL); in assay [6], 0.765 µM (≈ 2 µg/mL). Besides, the MIC in assay [7] amounted to 0.383 µM (≈ 1 µg/mL); in assay [8], 0.383 µM (≈ 1 µg/mL); in [9], 0.765 µM (≈ 2 µg/mL).

For the origin of these results see DBAASP.
